Test results taken from ChEMBL document CHEMBL5543142, “Discovery of YFJ-36: Design, Synthesis, and Antibacterial Activities of Catechol-Conjugated β-Lactams against Gram-Negative Bacteria” (J Med Chem, 2024).

Key:
Acinetobacter baumannii [1] = experiment: Antibacterial activity against OXA-23 producing multidrug-resistant Acinetobacter baumannii clinical isolate 15-1 assessed as inhibition of bacterial growth incubated for 18 to 20 hrs by two fold serial dilution assay; format: functional; details: time 18-20 hrs
Acinetobacter baumannii [2] = experiment: Antibacterial activity against OXA-23 producing multidrug-resistant Acinetobacter baumannii clinical isolate 17-2 assessed as inhibition of bacterial growth incubated for 18 to 20 hrs by two fold serial dilution assay; format: functional; details: time 18-20 hrs
Klebsiella pneumoniae [3] = experiment: Antibacterial activity against KPC-2 producing multidrug-resistant Klebsiella pneumoniae clinical isolate 15-1 assessed as inhibition of bacterial growth incubated for 18 to 20 hrs by two fold serial dilution assay; format: functional; details: time 18-20 hrs
Klebsiella pneumoniae [4] = experiment: Antibacterial activity against KPC-2 producing multidrug-resistant Klebsiella pneumoniae clinical isolate 15-2 assessed as inhibition of bacterial growth incubated for 18 to 20 hrs by two fold serial dilution assay; format: functional; details: time 18-20 hrs
Escherichia coli [5] = experiment: Antibacterial activity against Escherichia coli ATCC35218 assessed as inhibition of bacterial growth incubated for 18 to 20 hrs by two fold serial dilution assay; format: functional; details: time 18-20 hrs
Pseudomonas aeruginosa [6] = experiment: Antibacterial activity against IMP-4 producing multidrug-resistant Pseudomonas aeruginosa clinical isolate 17-13 assessed as inhibition of bacterial growth incubated for 18 to 20 hrs by two fold serial dilution assay; format: functional; details: time 18-20 hrs
Acinetobacter baumannii [7] = experiment: Antibacterial activity against OXA-23 producing multidrug-resistant Acinetobacter baumannii clinical isolate 15-4 assessed as inhibition of bacterial growth incubated for 18 to 20 hrs by two fold serial dilution assay; format: functional; details: time 18-20 hrs
Escherichia coli [8] = experiment: Antibacterial activity against ESBL-producing multidrug-resistant Escherichia coli clinical isolate 14-1 assessed as inhibition of bacterial growth incubated for 18 to 20 hrs by two fold serial dilution assay; format: functional; details: time 18-20 hrs
Acinetobacter baumannii [9] = experiment: Antibacterial activity against OXA-23 producing multidrug-resistant Acinetobacter baumannii clinical isolate 15-3 assessed as inhibition of bacterial growth incubated for 18 to 20 hrs by two fold serial dilution assay; format: functional; details: time 18-20 hrs
Acinetobacter baumannii [10] = experiment: Antibacterial activity against OXA-23 producing multidrug-resistant Acinetobacter baumannii clinical isolate 17-3 assessed as inhibition of bacterial growth incubated for 18 to 20 hrs by two fold serial dilution assay; format: functional; details: time 18-20 hrs
Escherichia coli [11] = experiment: Antibacterial activity against ESBL-producing multidrug-resistant Escherichia coli clinical isolate 14-4 assessed as inhibition of bacterial growth incubated for 18 to 20 hrs by two fold serial dilution assay; format: functional; details: time 18-20 hrs
Escherichia coli [12] = experiment: Antibacterial activity against ESBL-producing multidrug-resistant Escherichia coli clinical isolate 14-2 assessed as inhibition of bacterial growth incubated for 18 to 20 hrs by two fold serial dilution assay; format: functional; details: time 18-20 hrs
Pseudomonas aeruginosa [13] = experiment: Antibacterial activity against IMP-4 producing multidrug-resistant Pseudomonas aeruginosa clinical isolate 19-17 assessed as inhibition of bacterial growth incubated for 18 to 20 hrs by two fold serial dilution assay; format: functional; details: time 18-20 hrs
Acinetobacter baumannii [14] = experiment: Antibacterial activity against OXA-23 producing multidrug-resistant Acinetobacter baumannii clinical isolate 15-5 assessed as inhibition of bacterial growth incubated for 18 to 20 hrs by two fold serial dilution assay; format: functional; details: time 18-20 hrs
Pseudomonas aeruginosa [15] = experiment: Antibacterial activity against IMP-4 producing multidrug-resistant Pseudomonas aeruginosa clinical isolate 19-5 assessed as inhibition of bacterial growth incubated for 18 to 20 hrs by two fold serial dilution assay; format: functional; details: time 18-20 hrs
Klebsiella pneumoniae [16] = experiment: Antibacterial activity against KPC-2 producing multidrug-resistant Klebsiella pneumoniae clinical isolate 15-3 assessed as inhibition of bacterial growth incubated for 18 to 20 hrs by two fold serial dilution assay; format: functional; details: time 18-20 hrs
Klebsiella pneumoniae [17] = experiment: Antibacterial activity against KPC-2 producing multidrug-resistant Klebsiella pneumoniae clinical isolate 15-5 assessed as inhibition of bacterial growth incubated for 18 to 20 hrs by two fold serial dilution assay; format: functional; details: time 18-20 hrs
Acinetobacter baumannii [18] = experiment: Antibacterial activity against OXA-23 producing multidrug-resistant Acinetobacter baumannii clinical isolate 15-2 assessed as inhibition of bacterial growth incubated for 18 to 20 hrs by two fold serial dilution assay; format: functional; details: time 18-20 hrs
[19] = Clearance in ICR mouse at 20 mg/kg,iv administration measured upto 6 hrs by LC-MS/MS analysis; format: ADME, organism-based; details: in vivo
[20] = Half life in ICR mouse at 20 mg/kg,iv administration measured upto 6 hrs by LC-MS/MS analysis; format: ADME, organism-based; details: in vivo
[21] = AUC (0 to infinity) in ICR mouse at 20 mg/kg,iv administration measured upto 6 hrs by LC-MS/MS analysis; format: ADME, organism-based; details: in vivo
[22] = MRT in ICR mouse at 20 mg/kg,iv administration measured upto 6 hrs by LC-MS/MS analysis; format: ADME, organism-based; details: in vivo
[23] = Volume of distribution at steady state in ICR mouse at 20 mg/kg,iv administration measured upto 6 hrs by LC-MS/MS analysis; format: ADME, organism-based; details: in vivo, read-out: Vdss
Pseudomonas aeruginosa [24] = experiment: Antibacterial activity against IMP-4 producing multidrug-resistant Pseudomonas aeruginosa clinical isolate 19-1 assessed as inhibition of bacterial growth incubated for 18 to 20 hrs by two fold serial dilution assay; format: functional; details: time 18-20 hrs
Pseudomonas aeruginosa [25] = experiment: Antibacterial activity against IMP-4 producing multidrug-resistant Pseudomonas aeruginosa clinical isolate 15-5 assessed as inhibition of bacterial growth incubated for 18 to 20 hrs by two fold serial dilution assay; format: functional; details: time 18-20 hrs
Pseudomonas aeruginosa [26] = experiment: Antibacterial activity against IMP-4 producing multidrug-resistant Pseudomonas aeruginosa clinical isolate 15-4 assessed as inhibition of bacterial growth incubated for 18 to 20 hrs by two fold serial dilution assay; format: functional; details: time 18-20 hrs
Pseudomonas aeruginosa [27] = experiment: Antibacterial activity against IMP-4 producing multidrug-resistant Pseudomonas aeruginosa clinical isolate 15-1 assessed as inhibition of bacterial growth incubated for 18 to 20 hrs by two fold serial dilution assay; format: functional; details: time 18-20 hrs
Pseudomonas aeruginosa [28] = experiment: Antibacterial activity against Pseudomonas aeruginosa ATCC 27853 assessed as inhibition of bacterial growth incubated for 18 to 20 hrs by two fold serial dilution assay; format: functional; details: time 18-20 hrs

| SMILES | MIC (Acinetobacter baumannii [1]) [µg/mL] | MIC (Klebsiella pneumoniae [3]) [µg/mL] | MIC (Klebsiella pneumoniae [4]) [µg/mL] | MIC (Escherichia coli [5]) [µg/mL] | MIC (Pseudomonas aeruginosa [6]) [µg/mL] | MIC (Acinetobacter baumannii [7]) [µg/mL] | MIC (Escherichia coli [8]) [µg/mL] | MIC (Acinetobacter baumannii [9]) [µg/mL] | MIC (Escherichia coli [11]) [µg/mL] | MIC (Escherichia coli [12]) [µg/mL] | MIC (Pseudomonas aeruginosa [13]) [µg/mL] | MIC (Acinetobacter baumannii [14]) [µg/mL] | MIC (Klebsiella pneumoniae [16]) [µg/mL] | MIC (Klebsiella pneumoniae [17]) [µg/mL] | MIC (Acinetobacter baumannii [18]) [µg/mL] | clearance [19] [mL/min/kg] | half-life [20] [min] | AUC(0-inf) [21] [ng·h/mL] | MRT [22] [min] | Vd [23] [L/kg] | also measured |
| --- | --- | --- | --- | --- | --- | --- | --- | --- | --- | --- | --- | --- | --- | --- | --- | --- | --- | --- | --- | --- | --- |
| Nc1nc(/C(=N/OC(C(=O)O)C2CCCCC2)C(=O)N[C@@H]2C(=O)N3C(C(=O)O)=C(CSCCNC(=O)c4ccc(O)c(O)c4Cl)CS[C@H]23)c(Cl)s1.O=C(O)C(F)(F)F (stereo partly drawn) | 4 | 1 | 1 | 0.125 | 0.25 | 2 | 0.25 | 4 | 0.5 | 0.5 | 0.5 | 4 | 2 | 1 | 2 |  |  |  |  |  | MIC (Acinetobacter baumannii [2]): 1 µg/mL; MIC (Acinetobacter baumannii [10]): 2 µg/mL; MIC (Pseudomonas aeruginosa [15]): 1 µg/mL |
| Cc1ccc(S(=O)(=O)O)cc1.Nc1nc(/C(=N/OC(C(=O)O)C2CCC(F)(F)CC2)C(=O)N[C@@H]2C(=O)N3C(C(=O)O)=C(CSCCNC(=O)c4ccc(O)c(O)c4Cl)CS[C@H]23)cs1 (stereo partly drawn) |  |  |  |  |  |  |  |  |  |  |  |  |  |  |  | 31.3 | 45 | 11600 | 12 | 0.402 |  |
| CC(C)(O/N=C(\C(=O)N[C@@H]1C(=O)N2C(C(=O)[O-])=C(C[N+]3(CCNC(=O)c4ccc(O)c(O)c4Cl)CCCC3)CS[C@H]12)c1csc(N)n1)C(=O)O.O=C(O)C(F)(F)F |  |  |  |  |  |  |  |  |  |  |  |  |  |  |  | 25.2 | 33 | 11600 | 26.4 | 0.663 |  |
| CC1CCC(C(O/N=C(\C(=O)N[C@@H]2C(=O)N3C(C(=O)O)=C(CSCCNC(=O)c4ccc(O)c(O)c4Cl)CS[C@H]23)c2csc(N)n2)C(=O)O)CC1.O=C(O)C(F)(F)F (stereo partly drawn) | 4 | 1 | 0.5 | ≤ 0.03 | 0.5 | 4 | 0.5 | 4 | 0.125 | 0.5 | 0.5 | 8 | 1 | 0.5 | 8 | 60.3 | 139 | 5760 | 35.4 | 2.37 |  |
| Nc1nc(/C(=N/OC(C(=O)O)C2CCC(F)(F)CC2)C(=O)N[C@@H]2C(=O)N3C(C(=O)O)=C(CSCCNC(=O)c4ccc(O)c(O)c4Cl)CS[C@H]23)ns1.O=C(O)C(F)(F)F (stereo partly drawn) |  | 16 | 32 | 0.25 | 0.5 |  | 1 |  | 1 | 4 | 1 |  | 16 | 16 |  |  |  |  |  |  | MIC (Acinetobacter baumannii [2]): 0.25 µg/mL; MIC (Pseudomonas aeruginosa [24]): 8 µg/mL; MIC (Acinetobacter baumannii [10]): 0.25 µg/mL; MIC (Pseudomonas aeruginosa [15]): 4 µg/mL |
| CC(C)(O/N=C(\C(=O)N[C@@H]1C(=O)N2C(C(=O)O)=C(CSCCCNC(=O)c3ccc(O)c(O)c3Cl)CS[C@H]12)c1csc(N)n1)C(=O)O.O=C(O)C(F)(F)F | 32 | 16 | 4 |  |  | 64 | 0.125 | 32 | 16 | 2 |  | 64 | 8 | 4 | 64 |  |  |  |  |  | MIC (Pseudomonas aeruginosa [25]): 4 µg/mL; MIC (Pseudomonas aeruginosa [26]): 2 µg/mL; MIC (Pseudomonas aeruginosa [27]): 1 µg/mL; MIC (Pseudomonas aeruginosa [28]): 4 µg/mL |
